Source: US8236510B2, “Protein showing enhanced expression in cancer cells” (Agensys, Inc., priority 1999, dated 2012)

Legend:
3T3-101P3A11 tumors = assay: Subcutaneous growth of 3T3-101P3A11 tumors in SCID mice; format: in vivo
Method: (2) Regulated expression under control of an inducible vector system, such as ecdysone, tet, etc., can be used provided such promoters are compatible with the host cell systems. […] FIG. 21 compares subcutaneous growth of control 3T3-neo and 3T3-101P3A11 cells. One million cells stably expressing neo or 101P3A11 were injected subcutaneously in SCID mice along with matrigel. Tumor volume was evaluated by caliper measurements. […] Additionally, SCID mice were implanted with the same 3T3-101P3A11 cells orthotopically in the prostate to determine if 101P3A11 has an effect on local growth in the prostate or on the ability of the cells to metastasize, specifically to lungs or lymph nodes. […] In an analogous manner, cells can be implanted orthotopically in the bladder, colon or kidney. (Saffran, D., et al., PNAS 10:1073-1078; Fu, X., et al., Int. J. Cancer, 1991, 49: p. 938-939; Chang, S., et al., Anticancer Res., 1997, 17: p. 3239-3242; Peralta, E. A., et al., J. Urol., 1999, 162: p. 1806-1811). The tumor enhancing effect of 101P3A11 was also observed when 101P3A11 is expressed in prostate cancer cells such as PC3 and introduced into the prostate of SCID mice (Figure M11). A 2.5 fold increase in tumor weight is observed in tumors expressing 101P3A11 relative to control cells.
Furthermore, these assays is useful to confirm the anti-101P3A11 inhibitory effects of candidate therapeutic compositions, such as for example, 101P3A11 antibodies or intrabodies, and 101P3A11 antisense molecules or ribozymes, or 101P3A11 directed small molecules. In FIG. 22, we depict the effect of a small molecule, pertussis toxin (PTX) on tumor formation by 3T3-101P3A11 cells. In this experiment, SCID mice were injected with 3T3-101P3A11 alone or in conjunction with PTX. Each mouse was given 5 doses of PTX at 3-4 days interval. Tumor volume was evaluated by caliper measurements. […] Similarly, treatment with the G-protein inhibitor suramin inhibits the growth of 3T3-101P3A11 tumors (Figure M13).

[1] = system: ERK phosphorylation in PC3-101P3A11 cells; assay: ERK phosphorylation in PC3-101P3A11 and PC3-neo cells (anti-Phospho-ERK Western blot); format: cell-based, human; conditions: PC3-101P3A11 cells
Method: Using Western blotting and other techniques, the ability of 101P3A11 to regulate these pathways is confirmed. Cells expressing or lacking 101P3A11 are either left untreated or stimulated with cytokines, androgen and anti-integrin antibodies. Cell lysates were analyzed using anti-phospho-specific antibodies (Cell Signaling, Santa Cruz Biotechnology) in order to detect phosphorylation and regulation of ERK, p38, AKT, PI3K, PLC and other signaling molecules. […] In the experiment, data shown in FIG. 26, control 3T3-neo and 3T3-101P3A11 cells were either treated with 0.5 or 10% FBS and whole cell lysates were analyzed by anti-phosphotyrosine Western blotting.
In this experiment, control PC3-neo cells and PC3-101P3A11 cells were left untreated (0.1% FBS) or were stimulated with 10% FBS, lipophosphatidic acid (LPA), gastrin releasing peptide (GRP), leukotriene (LKB4) or platelet activating factor (PAF). The cells were lysed and analyzed by Western blotting using anti-Phospho-ERK (FIG. 27A) or anti-ERK (FIG. 27B) mAb. […] In order to delineate the signaling pathway by which 101P3A11 mediates ERK phosphorylation in cancer cells, it was confirmed which of the two pathway inhibitors: MEK inhibitor PD98059 or the p38 inhibitor SB203580 regulate 101P3A11 mediated ERK phosphorylation (FIG. 28). […] Cells were lysed and analyzed by Western blotting using anti-Phospho-ERK or anti-ERK mAb. Treatment with 10% FBS or with GRP induced the phosphorylation of ERK in PC3-101P3A11 but not in control PC3-neo cells. 101P3A11-mediated ERK phosphorylation was inhibited by the MEK-1 inhibitor PD98059 but not the p38 inhibitor SB203580 or genistein.
Results in FIGS. 26-28 indicate that 101P3A11 regulates the activity of kinases, including ERK, and phosphatases. In order to confirm the association of 101P3A11 with phosphatase activity, the effect of the protein phosphatase inhibitor sodium orthovanadate on 101P3A11 mediated ERK phosphorylation was determined (FIG. 29). PC3-neo and PC3-101P3A11 cells were grown in media alone or in the presence of sodium orthovanadate (Na3VO4), and were stimulated with 0.1% or 10% FBS. Cells were lysed and analyzed by Western blotting using anti-Phospho-ERK or anti-ERK mAb. […] Results in FIG. 29 confirm the contribution of protein phosphatases to 101P3A11 mediated signaling.
In order to determine whether 101P3A11 signaling results in the activation of EGFR, we compared the effect of the EGFR inhibitor, AG1517, on EGFR- and 101P3A11-mediated ERK phosphorylation (FIG. 30). In FIG. 30, PC3-neo and PC3-101P3A11 cells were grown in media alone (0.1% FBS) or in the presence of AG1517. The cells were stimulated with 0.1% or 10% FBS, GRP or EGF, lysed and analyzed by Western blotting using anti-Phospho-ERK or anti-ERK mAb. Treatment with 10% FBS, GRP and EGF induced ERK phosphorylation in PC3-101P3A11 cells. […] Data in FIG. 30 indicate that some cross talk occurred between 101P3A11 and EGFR signaling pathways.
Since adenylate cyclase activity modulates intracellular levels of cAMP and induce downstream signaling events such as activation of protein kinase A, calcium and ERK MAPK signaling (Pierce K. L., et al, Oncogene. 2001, 20: 1532), we determined that PTX, an inhibitor of adenylate cyclase signaling, prevents 101P3A11-mediated ERK phosphorylation along with inhibiting cAMP accumulation (FIG. 33 and FIG. 34). PC3-neo and PC3-101P3A11 cells were grown overnight in 0.1% FBS in media alone or in the presence of pertussis toxin (PTX). Cells were stimulated with 0.1% or 10% FBS (FIG. 33) or 10% FBS, EGF or GRP (FIG. 34). Cells were lysed and analyzed by Western blotting using anti-Phospho-ERK mAb. Expression of 101P3A11 mediated ERK phosphorylation by 10% FBS in PC3 cells, which was inhibited by PTX (FIG. 33 and FIG. 34).
GPCR transmit their signal by activating trimeric G proteins. […]

pertussis toxin [PTX]
inhibition of tumor growth (3T3-101P3A11 tumors; 5 doses at 3-4 days interval, tumor volume by caliper): inhibits tumor growth in a dose dependent manner
inhibition of tumor growth (3T3-101P3A11 tumors; 5 doses at 3-4 days interval, tumor volume by caliper, listed as Pertussis toxin): inhibit
inhibition of tumor growth (3T3-101P3A11 tumors; 5 time per week, after 25 days): 70%
inhibition of FBS-mediated ERK phosphorylation ([1]; 10% FBS): inhibited
effect on GRP and EGF-mediated ERK phosphorylation ([1]; GRP or EGF): relatively unaffected
